Experimental findings from US10766912B2 (priority 2017, dated 2020) are described below.

Bounds are passed on as bounds.

Data set [1] deals with HCV GT1b/3a NS5A chimeric replicon. The data set can be described thus: Assay Example 1: activity against HCV GT1b/3a NS5A chimeric replicon. The data set is classed as cell-based. The settings on record: Hepatitis C virus, Huh-7, 72 h, read-out: EC50 value GT1b/3a NS5A chimeric replicon. As for the experimental part:
(§1) Cells: Huh 7 cell line and HCV GT1b/3a and GT1b/6a NS5A chimeric replicons and GT1b and GT1a wild-type replicon RNA.
(§2) Treatment of Compound: According to the assay final concentrations of the compounds in Table 2, DMSO stock solutions of the compounds were diluted and then added to a 96-well assay plate. The final concentration of DMSO was 0.5%.
(§3) The preparation of cells: After replicon plasmid DNA was linearized with a corresponding restriction enzyme, the DNA was transcribed into RNA by using T7RNA polymerase. Replicon RNA prepared by transcription in vitro was transfected into Huh-7 cells by electroporation. Transfected cells were seeded at a density of 10,000 cells per well into the 96-well assay plate containing the diluted compounds, and then the plate was placed in a 37° C. incubator with 5% CO2 and cultured for 3 days.
(§4) Drug activity assay: Luminescence signal value (RLU) was detected with Envision within 15 minutes using the luciferase assay reagent Britelite plus, and the original data (RLU) was used for the calculation of the activity of the compounds.
(§5) The activity of the compounds was calculated by using the equation below: Inhibition %=(ZPE−CPD)/(ZPE−HPE)×100%*
(§6) The cell viability percentages (Viability %) and the inhibition percentages (Inhibition %) were imported into GraphPad Prism software, respectively, and curves were fitted by using nonlinear regression method to obtain the corresponding curves of the compounds, and the cytotoxicity (CC50) thereof and inhibitory activity (EC50) values against the HCV replicon thereof.

Data set [2] deals with HCV GT1a wild-type replicon. The data set can be described thus: Assay Example 1: activity against HCV GT1a wild-type replicon. Format: cell-based. The settings on record: Hepatitis C virus, 72 h, Huh 7 cells, 3 days, luciferase. As for the experimental part:
as §1, §2, §3, §4, §5, §6
In general terms: A replicon is a self-replicating genome or part of one, used to study replication in cells.

Data set [3] is described as follows: in vitro. The data set is classed as cell-based. The note with it: human; Huh 7 cells with GT1b wild-type replicon, 3 days, CellTiter-Fluor. As for the experimental part: as §1, §2, §3
Cell viability assay: A cell growth fluorescent titration detection reagent CellTiter-Fluor was added to the 96-well plate of the GT1b wild-type replicon. After the cells were cultured for 1 hour in a 37° C. incubator with 5% CO2, the fluorescence signal value (RFU) was detected by Envision, and the original data (RFU) was used for the calculation of the cytotoxicity of the compounds.
The cytotoxicity of the compounds was calculated by using the equation below: Cell Viability %=(CPD−HPE)/(ZPE−HPE)×100%*
as §6

The nature of data set [4]: Assay Example 3: parallel cytotoxicity assay (alamarBlue) without viral infection. Format: cell-based. The note with it: human, Huh7.5.1 cells without viral infection, no viral infection, read-out: CC50 Value HCVcc. As for the experimental part: Cells: Huh7.5.1 cells and hepatitis C virus HCVcc (GT2a, JFH-1) infection system.
Treatment of Compound: According to the assay final concentrations of the compounds in Table 6, DMSO stock solutions of the compounds were diluted and then added to a 96-well assay plate. The final concentration of DMSO was 0.5%.
Viral infection: Huh7.5.1 cells were seeded in a 96-well cell culture plate, and the cells were cultured overnight at 37° C. in an incubator with 5% CO2 for later use. The compound and the HCVcc virus solution (MOI=0.1) were simultaneously added to the cells, and the virus infection was cultured for 3 days. Parallel cytotoxicity assay was identical to the method for the inhibition of the virus but without viral infection.
Cell viability assay: Cell viability was detected by the addition of alamarBlue assay reagent. The original data (RFU) was used for the calculation of the cytotoxicity of the compounds.
The cytotoxicity of the compounds was calculated by using the equation below: Cell Viability %=CPD/CC×100%*
The cell viability percentages (Cell Viability %) and the compound activity percentages (Inhibition %) were imported into GraphPad Prism software, respectively, and curves were fitted by using nonlinear regression method to obtain the corresponding curves of the compounds, and the cytotoxicity (CC50) thereof and inhibitory activity (EC50) values against the HCV replicon thereof.
Background: Alamar Blue is a resazurin reagent that responds to reducing activity.

A short description of data set [5]: Assay Example 5: distribution in mouse plasma and liver tissue. The data set is classed as in vivo. The note with it: 10 mg/kg intragastric; for Kp at 0.5 h / Kp at 3 h / Kp at 8 h: male, oral, liver/plasma, read-out: Ratio (L/P). The procedure:
Eighteen male mice were randomly divided into two groups, fasted (free access to water) overnight, and then intragastrically administered with 10 mg/kg of Compound 1a and Compound 6b, respectively. The subject animals were sacrificed by bloodletting at 0.5 h, 3 h and 8 h after administration. About 1 mL of blood was taken, and anticoagulated with EDTA-K2. The blood samples were immediately placed in ice, and then transferred within 30 min to centrifuge and separate plasma at 4° C. and 4,000 rpm for 10 min. Meanwhile, the whole liver was taken out at the various time points, rinsed with ice-cold physiological saline, blotted dry, weighed, and prepared into a homogenate with physiological saline (W/V=1:5). All plasma and liver homogenates were collected and then immediately stored at −20° C. for testing.
The mice can be fed at 4 h after administration.
After being completely melted, all the samples were vortexed to mix evenly. 50 μL of the samples were pipetted into a 1.5 mL centrifuge tube respectively and then 200 μL of IS-D (20 ng/ml diazepam acetonitrile) solution was added to each sample (200 μL of acetonitrile was added to the blank sample). The samples were vortexed for 10 min and then centrifuged at 12,000 rpm and 4° C. for 10 min. After 80 μL of pure water was added to a 96-well plate, 80 μL of the supernatants were pipetted respectively from the centrifuge tubes to the 96-well plate, vortexed for 3 min, and then kept at 4° C. until LC-MS/MS injection analysis.

In data set [6] the test system is HCV GT1b/6a NS5A chimeric replicon. The data set can be described thus: Assay Example 1: activity against HCV GT1b/6a NS5A chimeric replicon. The settings on record: Hepatitis C virus, Huh-7, 72 h, read-out: EC50 value GT1b/6a NS5A chimeric replicon. The data set is classed as cell-based. As for the experimental part: as §1, §2, §3, §4, §5, §6

Regarding `COC(=O)N[C@H](C(=O)N1CCC[C@H]1C(=O)Nc1ccc([C@H]2CC[C@H](c3ccc4nc([C@@H]5CCCN5C(=O)[C@@H](NC(=O)OC)[C@@H](C)OC)[nH]c4c3)N2c2cc(F)c(N3CC[Si](C)(C)CC3)c(F)c2)cc1)[C@@H](C)OC` [Compound 6b], in data set [1], the EC50 turned out to be 2.4 pM. Besides, the EC50 in data set [2] is 6.2 pM. In data set [3], this compound showed a CC50 of over 100 pM. Moreover, the CC50 at 3 days in data set [4] was over 100 pM. Moreover, in data set [5] (0.5 h), the Liver concentration is on record as 401 ± 116, the Plasma concentration is 226 ± 66 and the Kp at 0.5 h came to 1.78. Besides, in data set [5] (3 h), the Liver concentration was 960 ± 530, the Plasma concentration stood at 464 ± 363.3 and the Kp at 3 h was found to be 2.07. In data set [5] (8 h), the Liver concentration is 18 ± 1, the Plasma concentration was 10 ± 5.8 and the Kp at 8 h turned out to be 1.76. Moreover, the EC50 in data set [6] amounted to 5.4 pM.
Turning to `COC(=O)N[C@H](C(=O)N1CCC[C@H]1C(=O)Nc1ccc([C@@H]2CC[C@@H](c3ccc(NC(=O)[C@@H]4CCCN4C(=O)[C@@H](NC(=O)OC)[C@@H](C)OC)cc3)N2c2cc(F)c(N3CC[Si](C)(C)CC3)c(F)c2)cc1)[C@@H](C)OC` [Compound 1a, Methyl ((2S,2′S,3R,3′R)-((2S,2′S)-(((((2S,5S)-1-(4-(4,4-dimethylazasilinan-1-yl)-3,5-difluorophenyl)pyrrolidin-2,5-diyl)bis(4,1-phenylene))bis(azanediyl))bis(carbonyl))bis(pyrrolidin-2,1-diyl))bis(3-methoxy-1-oxobutan-1,2-diyl))dicarbamate], the EC50 in data set [1] is 3 pM; in data set [2] it was 7.7 pM; in data set [6] it was 17 pM. Besides, the CC50 in data set [3] was over 100 pM. Further, the CC50 at 3 days in data set [4] is over 100 pM. Further, the Liver concentration is on record as 337 ± 33.1 in data set [5] (0.5 h), 2644 ± 147.3 in data set [5] (3 h) and 334 ± 73.9 in data set [5] (8 h). The Plasma concentration in data set [5] (0.5 h) came to 139 ± 16.9; in data set [5] (3 h), 384 ± 81; in data set [5] (8 h) it was 59 ± 7.8. In addition, in data set [5] (0.5 h), the Kp at 0.5 h is 2.43. Moreover, the Kp at 3 h in data set [5] (3 h) is 6.89. For the same compound, in data set [5] (8 h), the Kp at 8 h was 5.67.

As a reminder, the CC50 is the concentration giving 50% cytotoxicity.
